The results in this text go back to patent publication US20250163048A1 (Tango Therapeutics, Inc., priority 2022, published 2025).

The structures appear in SMILES notation. Where two headings read alike, the source gives them in different places.

The test system of test [1] is HAP1 MTAP-intact cell line. Briefly: SDMA in-cell western assay, HAP1 MTAP-intact.
Test [2] deals with MTAP-deleted cell line. In words: viability assay for the MTAP-deleted cell line. The test is classed as cell-based.
Test [3] has as its system HAP1 MTAP-deleted cell line. In words: SDMA in-cell western assay, HAP1 MTAP-deleted. As to conditions: for Hap1 MTAP intact/deleted ratio: IC50 ratio between HAP1 MTAP-intact and HAP1 MTAP-deleted cell line.
Where [4] appears, read: Homo sapiens, HAP1, read-out: Hap1 MTAP intact IC50, SDMA in-cell western assay, HAP1 MTAP-intact cell line.
[5] abbreviates: Homo sapiens, HAP1, viability assay.
Where [6] appears, read: Homo sapiens, HAP1, read-out: Hap1 MTAP deleted IC50, SDMA in-cell western assay, HAP1 MTAP-deleted cell line.
Setting [7] is: Homo sapiens, HAP1, read-out: Hap1 MTAP deleted IC90, SDMA in-cell western assay, HAP1 MTAP-deleted cell line.
[8] abbreviates: Homo sapiens, HAP1, read-out: Hap1 MTAP intact IC50, SDMA in-cell western, HAP1 MTAP-intact cell line.
Setting [9] is: Homo sapiens, HAP1, read-out: Hap1 MTAP deleted IC50, SDMA in-cell western, HAP1 MTAP-deleted cell line.
The mark [10] stands for this setting: Homo sapiens, HAP1, read-out: Hap1 MTAP deleted IC90, SDMA in-cell western, HAP1 MTAP-deleted cell line.

`C[C@H]1CC[C@H](c2cccc(F)c2)N(C(=O)C(=O)Nc2cnc(N)c3cn[nH]c23)C1` (racemic) [Compound 198, N-(4-Amino-1H-pyrazolo[4,3-c]pyridin-7-yl)-2-oxo-2-[rac-(2R,5S)-2-(3-fluorophenyl)-5-methyl-1-piperidyl]acetamide]: the values for the IC50 in test [1] (setting [4]), in test [2] (setting [5]) and in test [3] (setting [6]) were 5 to 50 nM, under 100 nM and under 5 nM, respectively. Besides, in test [3] (setting [7]), the IC90 is under 75 nM. The “Hap1 MTAP intact/deleted ratio” value in test [3] (SDMA in-cell western assay) is listed as “B (“B” indicates an IC50 ratio greater than or equal to 15 fold but lower than 30 fold)”.
Turning to `C[C@H]1CC[C@H](c2ccc3sc(C4CCN(C)CC4)nc3c2)N(C(=O)C(=O)Nc2cnc3c(c2)C(=O)NC3)C1` [Compound 87, 2-oxo-N-(5-oxo-6,7-dihydropyrrolo[3,4-b]pyridin-3-yl)-2-[(2R,5S)-5-methyl-2-[2-(1-methyl-4-piperidyl)-1,3-benzothiazol-5-yl]-1-piperidyl]acetamide], the concentration for half-maximal inhibition (IC50) in test [1] (setting [8]) was over 50 nM; in test [2] (setting [5]) it was 100 to 1000 nM; in test [3] (setting [9]), 5 to 50 nM. Besides, the 90% effect concentration (IC90) in test [3] (setting [10]) was over 125 nM. The “Hap1 MTAP intact/deleted ratio” value in test [3] (SDMA in-cell western) is “A (“A” indicates an IC50 ratio greater than or equal to 30 fold)”.
In the same order, the values of `C[C@H]1CC[C@H](c2ccc3cn(CCN(C)C)nc3c2)N(C(=O)C(=O)Nc2cncc3cn[nH]c23)C1` [Compound 163, 2-oxo-N-(1H-pyrazolo[4,3-c]pyridin-7-yl)-2-[(2R,5S)-2-[2-[2-(dimethylamino)ethyl]indazol-6-yl]-5-methyl-1-piperidyl]acetamide] are over 50 nM, under 100 nM, under 5 nM, under 75 nM and “A (“A” indicates an IC50 ratio greater than or equal to 30 fold)”.
The corresponding values for `C[C@H]1CC[C@H](c2ccc3cn(C4CCN(C)CC4)nc3c2)N(C(=O)C(=O)Nc2cncc3cn[nH]c23)C1` [Compound 90, 2-oxo-N-(1H-pyrazolo[4,3-c]pyridin-7-yl)-2-[(2R,5S)-5-methyl-2-[2-(1-methyl-4-piperidyl)indazol-6-yl]-1-piperidyl]acetamide] are 5 to 50 nM, under 100 nM, under 5 nM, under 75 nM and “B (“B” indicates an IC50 ratio greater than or equal to 15 fold but lower than 30 fold)”.
As to `CN(C)c1cccc(C2CCCCN2C(=O)C(=O)Nc2cnc(N)c3cn[nH]c23)c1` (single isomer, unassigned) [Compound 283], the IC50 in test [1] (read-out: Hap1 MTAP intact IC50, SDMA in-cell western assay, HAP1 MTAP-intact cell line) is 5 to 50 nM; in test [2] (viability assay, read-out: Hap1 MTAP deleted viability IC50), under 100 nM; in test [3] (read-out: Hap1 MTAP deleted IC50, SDMA in-cell western assay, HAP1 MTAP-deleted cell line), under 5 nM. The “Hap1 MTAP intact/deleted ratio” value in test [3] (SDMA in-cell western assay) was “A (“A” indicates an IC50 ratio greater than or equal to 30 fold)”. Moreover, in test [3] (read-out: Hap1 MTAP deleted IC90, SDMA in-cell western assay, HAP1 MTAP-deleted cell line), the IC90 is under 75 nM.
Regarding `C[C@@H]1C[C@@H](c2nc3cc([C@H]4CC[C@H](C)CN4C(=O)C(=O)Nc4cncc5cn[nH]c45)ccc3s2)CN(C)C1` (single isomer, unassigned) [Compound 171], the IC50 in test [1] (setting [8]) is over 50 nM; in test [2] (setting [5]), under 100 nM; in test [3] (setting [9]), under 5 nM. Besides, in test [3] (setting [10]), the IC90 is under 75 nM. Also, in test [3] (SDMA in-cell western), the “Hap1 MTAP intact/deleted ratio” value was “B (“B” indicates an IC50 ratio greater than or equal to 15 fold but lower than 30 fold)”.
On to `C[C@H]1CC[C@H](C2CCCCO2)N(C(=O)C(=O)Nc2cnc(N)c3cn[nH]c23)C1` (single isomer, unassigned) [Compound 232], for which the results for the IC50 in test [1] (setting [4]), in test [2] (setting [5]) and in test [3] (setting [6]) were over 50 nM, under 100 nM and under 5 nM, respectively. Moreover, the IC90 in test [3] (setting [7]) was under 75 nM. In addition, the “Hap1 MTAP intact/deleted ratio” value in test [3] (SDMA in-cell western assay) is listed as “A (“A” indicates an IC50 ratio greater than or equal to 30 fold)”.
The corresponding values for `Nc1ncc(NC(=O)C(=O)N2CCCCC2c2cccc(N3CCCC3)c2)c2[nH]ncc12` (single isomer, unassigned) [Compound 213] are over 50 nM, 100 to 1000 nM, 5 to 50 nM, over 125 nM and “A (“A” indicates an IC50 ratio greater than or equal to 30 fold)”.
Consider `Nc1ncc(NC(=O)C(=O)N2[C@@H](c3ccccc3)CCC[C@H]2C(F)(F)F)c2[nH]ncc12` (racemic) [Compound 245, N-(4-Amino-2H-pyrazolo[4,3-c]pyridin-7-yl)-2-oxo-2-[rac-(2R,6S)-2-phenyl-6-(trifluoromethyl)-1-piperidyl]acetamide], for which the figures for the IC50 in test [1] (setting [4]), in test [2] (setting [5]) and in test [3] (setting [6]) were over 50 nM, under 100 nM and under 5 nM, respectively. Moreover, the IC90 in test [3] (setting [7]) is under 75 nM. Moreover, the “Hap1 MTAP intact/deleted ratio” value in test [3] (SDMA in-cell western assay) is “A (“A” indicates an IC50 ratio greater than or equal to 30 fold)”.
Regarding `C[C@H]1CC[C@H](c2cccc(C(F)(F)F)c2)N(C(=O)C(=O)Nc2cnc(N)c3cn[nH]c23)C1` [Compound 138, N-(4-amino-1H-pyrazolo[4,3-c]pyridin-7-yl)-2-((2R,5S)-5-methyl-2-(3-(trifluoromethyl)phenyl)piperidin-1-yl)-2-oxoacetamide], the IC50 is over 50 nM in test [1] (setting [8]), under 100 nM in test [2] (setting [5]) and 5 to 50 nM in test [3] (setting [9]). Also, the 90% effect concentration (IC90) in test [3] (setting [10]) is under 75 nM. Also, the “Hap1 MTAP intact/deleted ratio” value in test [3] (SDMA in-cell western) was “A (“A” indicates an IC50 ratio greater than or equal to 30 fold)”.
As for `C[C@H]1CC[C@H](c2cccc(CCN(C)C)c2)N(C(=O)C(=O)Nc2cnc(N)c3c2cnn3C)C1` [Compound 197, N-(7-Amino-1-methyl-pyrazolo[3,4-c]pyridin-4-yl)-2-oxo-2-[(2R,5S)-2-[3-[2-(dimethylamino)ethyl]phenyl]-5-methyl-1-piperidyl]acetamide], the IC50 in test [1] (setting [4]) was 5 to 50 nM; in test [2] (setting [5]), under 100 nM; in test [3] (setting [6]), under 5 nM. Further, the IC90 in test [3] (setting [7]) is under 75 nM. The “Hap1 MTAP intact/deleted ratio” value in test [3] (SDMA in-cell western assay) was “C (“C” indicates an IC50 ratio of less than 15 fold)”.
As to `C[C@H]1CC[C@H](C(C)(C)C)N(C(=O)C(=O)Nc2cnc(N)c3cn[nH]c23)C1` (racemic) [Compound 254, N-(4-Amino-1H-pyrazolo[4,3-c]pyridin-7-yl)-2-oxo-2-[rac-(2R,5S)-2-tert-butyl-5-methyl-1-piperidyl]acetamide], the IC50 in test [1] (setting [4]) was over 50 nM; in test [2] (setting [5]), 100 to 1000 nM; in test [3] (setting [6]), 5 to 50 nM. Moreover, in test [3] (setting [7]), the IC90 was over 125 nM. In addition, the “Hap1 MTAP intact/deleted ratio” value in test [3] (SDMA in-cell western assay) is reported as “B (“B” indicates an IC50 ratio greater than or equal to 15 fold but lower than 30 fold)”.
Consider `C[C@H]1CC[C@H](c2ccc3sc(C4CCN(C)CC4)nc3c2)N(C(=O)C(=O)Nc2cnc(N)c3cn[nH]c23)C1` [Compound 105, N-(4-amino-1H-pyrazolo[4,3-c]pyridin-7-yl)-2-oxo-2-[(2R,5S)-5-methyl-2-[2-(1-methyl-4-piperidyl)-1,3-benzothiazol-5-yl]-1-piperidyl]acetamide], for which the IC50 is under 5 nM in test [1] (Homo sapiens, HAP1, read-out: Hap1 MTAP intact IC50); under 100 nM in test [2] (setting [5]); under 5 nM in test [3] (setting [9]). Further, the IC90 in test [3] (setting [10]) is under 75 nM.
Consider `C[C@H]1CC[C@H]([C@@H]2CCOC2)N(C(=O)C(=O)Nc2cnc(N)c3cn[nH]c23)C1` (single isomer, unassigned) [Compound 237], for which the concentration for half-maximal inhibition (IC50) in test [1] (setting [4]) is over 50 nM; in test [2] (setting [5]) it was 100 to 1000 nM; in test [3] (setting [6]), under 5 nM. Besides, the IC90 in test [3] (setting [7]) was over 125 nM. Further, the “Hap1 MTAP intact/deleted ratio” value in test [3] (SDMA in-cell western assay) is on record as “A (“A” indicates an IC50 ratio greater than or equal to 30 fold)”.
With `C[C@H]1CC[C@H](c2ccc3sc(C4CC(C)(C)N(C)C(C)(C)C4)nc3c2)N(C(=O)C(=O)Nc2cncc3c(N)nccc23)C1` [Compound 46, N-(8-amino-2,7-naphthyridin-4-yl)-2-((2R,5S)-5-methyl-2-(2-(1,2,2,6,6-pentamethylpiperidin-4-yl)benzo[d]thiazol-5-yl)piperidin-1-yl)-2-oxoacetamide], the concentration for half-maximal inhibition (IC50) in test [1] (setting [8]) is over 50 nM; in test [2] (setting [5]), under 100 nM; in test [3] (setting [9]), under 5 nM. For the same molecule, the IC90 in test [3] (setting [10]) was under 75 nM. The “Hap1 MTAP intact/deleted ratio” value in test [3] (SDMA in-cell western) is on record as “A (“A” indicates an IC50 ratio greater than or equal to 30 fold)”.
With `CCn1nccc1[C@H]1CC[C@@H](C)CN1C(=O)C(=O)Nc1cnc(N)c2cn[nH]c12` (stereo in doubt) [Compound 285, N-(4-Amino-1H-pyrazolo[4,3-c]pyridin-7-yl)-2-oxo-2-[rac-(2R,5R)-2-(2-ethylpyrazol-3-yl)-5-methyl-1-piperidyl]acetamide], the IC50 is over 50 nM in test [1] (setting [4]), 100 to 1000 nM in test [2] (setting [5]) and 5 to 50 nM in test [3] (setting [6]). Besides, the concentration for an effect of 90% (IC90) in test [3] (setting [7]) is over 125 nM. The “Hap1 MTAP intact/deleted ratio” value in test [3] (SDMA in-cell western assay) is listed as “A (“A” indicates an IC50 ratio greater than or equal to 30 fold)”.
Regarding `C[C@H]1CC[C@H](c2ccc3sc(C4CCN(C)CC4)nc3c2)N(C(=O)C(=O)Nc2cnc(N)c3cnccc23)C1` [Compound 11, N-(1-amino-2,7-naphthyridin-4-yl)-2-((2R,5S)-5-methyl-2-(2-(1-methylpiperidin-4-yl)benzo[d]thiazol-5-yl)piperidin-1-yl)-2-oxoacetamide], the IC50 in test [1] (setting [8]) is 5 to 50 nM; in test [2] (setting [5]) it was under 100 nM; in test [3] (setting [9]), under 5 nM. Besides, the IC90 in test [3] (setting [10]) was under 75 nM. The “Hap1 MTAP intact/deleted ratio” value in test [3] (SDMA in-cell western) is listed as “C (“C” indicates an IC50 ratio of less than 15 fold)”.
